Experimental data from patent publication US12281122B1, “PI3K inhibitors” (Cogent Biosciences, Inc., priority 2023, dated 2025).

Experiments:
[1] = tested on: T47D (PI3Kα-H1047R) cell line; experiment: HTRF phospho-AKT(S473) cell assay in T47D cells; assay type: cell-based, human; conditions: Homo sapiens, 2 hours compound incubation
Procedure, shortened: (§1)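 Cells plated overnight (T47D in RPMI/10% FBS/0.2 units/mL insulin; SKBR3 in McCoy's 5A/10% FBS), then given 12-point 1:3 compound series (top 5 μM T47D, 10 μM SKBR3; ≤0.5% DMSO) for 2 h at 37° C. SKBR3 stimulated with 70 ng/ml PDGF-BB for final 15 min. Lysate pAKT(S473) by HTRF; IC50 calculated.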

[2] = tested on: SKBR3 (PI3Kα-Wild Type) cell line; experiment: HTRF phospho-AKT(S473) cell assay in SKBR3 cells; assay type: cell-based, human; conditions: Homo sapiens, SK-BR-3, 2 hours compound incubation, PDGF-BB stimulated
Procedure, shortened: as §1

[3] = T47D (PI3Kα-H1047R) cells, HTRF phospho-AKT(S473)
[4] = SKBR3 (PI3Kα-Wild Type) cells, HTRF phospho-AKT(S473)
[5] = HTRF phospho-AKT(S473), T47D (PI3Kα-H1047R) cells
[6] = HTRF phospho-AKT(S473), SKBR3 (PI3Kα-Wild Type) cells

Row | Compound | IC50 [1, 3] [nM] | IC50 [2, 4] [nM] | IC50 [1, 5] [nM] | IC50 [2, 6] [nM] | further results
1 | Cc1cc([C@@H](C)Nc2ccc(Cl)nc2C(=O)NS(=O)(=O)C2COC2)c2nc(N3Cc4ccc(F)cc4C3)n(C)c(=O)c2c1 [Compound 173, (R)-6-chloro-3-((1-(2-(5-fluoroisoindolin-2-yl)-3,6-dimethyl-4-oxo-3,4-dihydroquinazolin-8-yl)ethyl)amino)-N-(oxetan-3-ylsulfonyl)picolinamide] | < 250 | 1000 to 5000 |  |  | 
2 | COc1cnn(C2CCN(c3nc4c([C@@H](C)Nc5ccc(Cl)nc5C(=O)NS(C)(=O)=O)cc(C)cc4c(=O)n3C)CC2)c1 [Compound 311, (R)-6-chloro-3-((1-(2-(4-(4-methoxy-1H-pyrazol-1-yl)piperidin-1-yl)-3,6-dimethyl-4-oxo-3,4-dihydroquinazolin-8-yl)ethyl)amino)-N-(methylsulfonyl) picolinamide] | < 250 | 1000 to 5000 |  |  | 
3 | Cc1cc([C@@H](C)Nc2ccc(Cl)nc2C(=O)NS(C)(=O)=O)c2nc(N3C[C@@H]4C[C@H]3C[C@@H]4c3ccn(C)n3)n(C)c(=O)c2c1 (relative stereo) [Compound 356, 6-chloro-3-(((R)-1-(3,6-dimethyl-2-((1R*,4S*,5R*)-5-(1-methyl-1H-pyrazol-3-yl)-2-azabicyclo[2.2.1]heptan-2-yl)-4-oxo-3,4-dihydroquinazolin-8-yl)ethyl)amino)-N-(methylsulfonyl) picolinamide] | < 250 | 1000 to 5000 |  |  | 
4 | Cc1cc([C@@H](C)Nc2ccc(Cl)nc2C(=O)NS(C)(=O)=O)c2nc(N3CCC(c4ncn(C(C)C)n4)CC3)n(C)c(=O)c2c1 [Compound 550, (R)-6-chloro-3-((1-(2-(4-(1-isopropyl-1H-1,2,4-triazol-3-yl)piperidin-1-yl)-3,6-dimethyl-4-oxo-3,4-dihydroquinazolin-8-yl)ethyl)amino)-N-(methylsulfonyl) picolinamide] |  |  | 250 to 500 | ≥ 5000 | 
5 | Cc1cc([C@@H](C)Nc2ccc(Cl)nc2C(=O)NS(C)(=O)=O)c2nc(N3CCC(c4ncc(C#N)cc4C)CC3)n(C)c(=O)c2c1 [Compound 266, (R)-6-chloro-3-((1-(2-(4-(5-cyano-3-methylpyridin-2-yl)piperidin-1-yl)-3,6-dimethyl-4-oxo-3,4-dihydroquinazolin-8-yl)ethyl)amino)-N-(methylsulfonyl) picolinamide] | < 250 | 1000 to 5000 |  |  | 
6 | Cc1cnc([C@H]2[C@@H]3CN(c4nc5c([C@@H](C)Nc6ccc(Cl)nc6C(=O)NS(C)(=O)=O)cc(C)cc5c(=O)n4C)C[C@@H]32)nc1 [Compound 502, 6-chloro-3-(((R)-1-(3,6-dimethyl-2-((1R,5S,6R)-6-(5-methylpyrimidin-2-yl)-3-azabicyclo[3.1.0]hexan-3-yl)-4-oxo-3,4-dihydroquinazolin-8-yl)ethyl)amino)-N-(methylsulfonyl) picolinamide] |  |  | 250 to 500 | 1000 to 5000 | 
7 | Cc1cc([C@@H](C)Nc2ccc(Cl)nc2C(=O)NS(C)(=O)=O)c2nc(N3C[C@@H]4[C@H](C3)[C@H]4c3cnc(C)nc3C)n(C)c(=O)c2c1 [Compound 578, 6-chloro-3-(((R)-1-(2-((1R,5S,6S)-6-(2,4-dimethylpyrimidin-5-yl)-3-azabicyclo[3.1.0]hexan-3-yl)-3,6-dimethyl-4-oxo-3,4-dihydroquinazolin-8-yl)ethyl)amino)-N-(methylsulfonyl) picolinamide] |  |  | < 250 | 1000 to 5000 | 
8 | Cc1cc([C@@H](C)Nc2ccc(Cl)nc2C(=O)NS(C)(=O)=O)c2nc(-c3ccc(-c4cnc(C)nc4)nc3)n(C)c(=O)c2c1 [Compound 854, (R)-6-chloro-3-((1-(3,6-dimethyl-2-(6-(2-methylpyrimidin-5-yl)pyridin-3-yl)-4-oxo-3,4-dihydroquinazolin-8-yl)ethyl)amino)-N-(methylsulfonyl) picolinamide] |  |  |  |  | IC50 ([1]; T47D (PI3Kα-H1047R) cell line, phospho-AKT(S473) HTRF): < 250 nM; IC50 ([2]; SKBR3 (PI3Kα-Wild Type) cell line, phospho-AKT(S473) HTRF): 1000 to 5000 nM
9 | Cc1cc([C@@H](C)Nc2ccc(Cl)nc2C(=O)NS(C)(=O)=O)c2nc(N3CCC(c4cnccn4)CC3)n(C)c(=O)c2c1 [Compound 398, (R)-6-chloro-3-((1-(3,6-dimethyl-4-oxo-2-(4-(pyrazin-2-yl)piperidin-1-yl)-3,4-dihydroquinazolin-8-yl)ethyl)amino)-N-(methylsulfonyl) picolinamide] | 250 to 500 | ≥ 5000 |  |  | 
10 | Cc1cc([C@@H](C)Nc2ccc(Cl)nc2C(=O)NS(C)(=O)=O)c2nc(-c3ccc(O[C@@H]4CCN(C)CC4(F)F)nc3)n(C)c(=O)c2c1 [Compound 244, 6-chloro-3-(((R)-1-(2-(6-(((R)-3,3-difluoro-1-methylpiperidin-4-yl)oxy)pyridin-3-yl)-3,6-dimethyl-4-oxo-3,4-dihydroquinazolin-8-yl)ethyl)amino)-N-(methylsulfonyl) picolinamide] | < 250 | 1000 to 5000 |  |  | 
11 | Cc1cc([C@@H](C)Nc2ccc(Cl)nc2C(=O)NS(C)(=O)=O)c2nc(N3CCC[C@H](c4cnc(C)cn4)C3)n(C)c(=O)c2c1 (relative stereo) [Compound 585, 6-chloro-3-(((R)-1-(3,6-dimethyl-2-((R*)-3-(5-methylpyrazin-2-yl)piperidin-1-yl)-4-oxo-3,4-dihydroquinazolin-8-yl)ethyl)amino)-N-(methylsulfonyl) picolinamide] |  |  | 250 to 500 | ≥ 5000 | 
12 | CC(=O)Nc1ccc(C2CCN(c3nc4c([C@@H](C)Nc5ccc(Cl)nc5C(=O)NS(C)(=O)=O)cc(C)cc4c(=O)n3C)CC2)cn1 [Compound 254, (R)-3-((1-(2-(4-(6-acetamidopyridin-3-yl)piperidin-1-yl)-3,6-dimethyl-4-oxo-3,4-dihydroquinazolin-8-yl)ethyl)amino)-6-chloro-N-(methylsulfonyl) picolinamide] | < 250 | 1000 to 5000 |  |  | 

Continued, in another order:

Row | IC50 [1, 3] [nM] | IC50 [2, 4] [nM] | IC50 [1, 5] [nM] | IC50 [2, 6] [nM] | Compound | further results
13 |  |  | < 250 | 250 to 500 | Cc1cc([C@@H](C)Nc2ccc(Cl)nc2C(=O)NS(C)(=O)=O)c2nc(N3CCC(n4cc(C#N)cn4)CC3)n(C)c(=O)c2c1 [Compound 686, (R)-6-chloro-3-((1-(2-(4-(4-cyano-1H-pyrazol-1-yl)piperidin-1-yl)-3,6-dimethyl-4-oxo-3,4-dihydroquinazolin-8-yl)ethyl)amino)-N-(methylsulfonyl) picolinamide] | 
14 |  |  | 250 to 500 | 1000 to 5000 | Cc1cc([C@@H](C)Nc2ccc(Cl)nc2C(=O)NS(C)(=O)=O)c2nc(N3C[C@@H]4[C@H](C3)[C@H]4c3nc(C)no3)n(C)c(=O)c2c1 [Compound 742, 6-chloro-3-(((R)-1-(3,6-dimethyl-2-((1R,5S,6R)-6-(3-methyl-1,2,4-oxadiazol-5-yl)-3-azabicyclo[3.1.0]hexan-3-yl)-4-oxo-3,4-dihydroquinazolin-8-yl)ethyl)amino)-N-(methylsulfonyl) picolinamide] | 
15 |  |  | 250 to 500 | 1000 to 5000 | Cc1cc([C@@H](C)Nc2ccc(Cl)nc2C(=O)NS(C)(=O)=O)c2nc(N3C[C@@H]4[C@H](C3)[C@H]4n3ncc(F)c3C)n(C)c(=O)c2c1 [Compound 632, 6-chloro-3-(((R)-1-(2-((1R,5S,6S)-6-(4-fluoro-5-methyl-1H-pyrazol-1-yl)-3-azabicyclo[3.1.0]hexan-3-yl)-3,6-dimethyl-4-oxo-3,4-dihydroquinazolin-8-yl)ethyl)amino)-N-(methylsulfonyl) picolinamide] | 
16 |  |  | 250 to 500 | ≥ 5000 | Cc1cc([C@@H](C)Nc2ccc(Cl)nc2C(=O)NS(C)(=O)=O)c2nc(-c3ccnc(O[C@@H]4CCN(C)CC4(F)F)c3)n(C)c(=O)c2c1 [Compound 809, 6-chloro-3-(((R)-1-(2-(2-(((R)-3,3-difluoro-1-methylpiperidin-4-yl)oxy)pyridin-4-yl)-3,6-dimethyl-4-oxo-3,4-dihydroquinazolin-8-yl)ethyl)amino)-N-(methylsulfonyl) picolinamide] | 
17 |  |  | 250 to 500 | 1000 to 5000 | COc1cc([C@H]2[C@@H]3CN(c4nc5c([C@@H](C)Nc6ccc(Cl)nc6C(=O)NS(C)(=O)=O)cc(C)cc5c(=O)n4C)C[C@@H]32)n[nH]1 [Compound 722, 6-chloro-3-(((R)-1-(2-((1R,5S,6R)-6-(5-methoxy-1H-pyrazol-3-yl)-3-azabicyclo[3.1.0]hexan-3-yl)-3,6-dimethyl-4-oxo-3,4-dihydroquinazolin-8-yl)ethyl)amino)-N-(methylsulfonyl) picolinamide] | 
18 |  |  | 250 to 500 | 1000 to 5000 | Cc1cc([C@@H](C)Nc2ccc(Cl)nc2C(=O)NS(C)(=O)=O)c2nc(N3CCC(c4nn(C5COC5)cc4F)CC3)n(C)c(=O)c2c1 [Compound 759, (R)-6-chloro-3-((1-(2-(4-(4-fluoro-1-(oxetan-3-yl)-1H-pyrazol-3-yl)piperidin-1-yl)-3,6-dimethyl-4-oxo-3,4-dihydroquinazolin-8-yl)ethyl)amino)-N-(methylsulfonyl) picolinamide] | 
19 |  |  | 250 to 500 | 1000 to 5000 | Cc1cc([C@@H](C)Nc2ccc(Cl)nc2C(=O)NS(C)(=O)=O)c2nc(N3CCC(c4nn(C)cc4C#N)CC3)n(C)c(=O)c2c1 [Compound 697, (R)-6-chloro-3-((1-(2-(4-(4-cyano-1-methyl-1H-pyrazol-3-yl)piperidin-1-yl)-3,6-dimethyl-4-oxo-3,4-dihydroquinazolin-8-yl)ethyl)amino)-N-(methylsulfonyl) picolinamide] | 
